Experimental data from patent US20150313913A1, “POSITIVE ALLOSTERIC MODULATORS OF THE GABA-A RECEPTOR IN THE TREATMENT OF AUTISM” (UNIVERSITY OF WASHINGTON THROUGH ITS CENTER FOR …, priority 2013, published 2015).
“Also recorded” adds a separate entry of the source.

How the values were obtained:
[1] = system: GABA-A α2, α3 and α5 subtypes; details: cited from earlier work
[2] = system: Scn1a+/− mice; assay: Contextual fear-conditioning test; format: in vivo; details: single i.p. 0.0625 mg/kg 30 min before training, listed as CLZ
Description: (§1) The contextual fear-conditioning chamber was a square arena (25×25 cm) with clear PLEXIGLAS™ walls and a metal grid floor connected to a circuit board that delivered shocks to the metal grid (COULBOURN INSTRUMENTS™). An analog camera was attached on top of the chamber. The camera and the circuit board were connected to a personal computer, and its software (FREEZE FRAME™ 2.0, ACTIMETRICS™) controlled the circuit and recorded the data. The chamber was cleaned with 70% ethanol and wiped with paper towels before each session. In the habituation session, a test mouse was placed in the chamber and allowed to explore for 2 min^66-69. Immediately after habituation, the test mouse received a single mild foot shock (2 s, 0.5 mA). After staying in the chamber one more min, the mouse was removed from the chamber. For the 30-min short-term memory test, the mouse was returned to the context 30 min after the end of the training session. […] The movement of mice was also recorded by a USB webcam (LIFECAM™ HD-6000, MICROSOFT™) and PC-based video capture software (WINAVI™ Video Capture, ZJ MEDIA DIGITAL TECHNOLOGY™) for 2 min. The recorded video file was further analyzed by off-line video tracking software (ETHOVISION™ XT 7.0, NOLDUS TECHNOLOGY™). The freezing scores were calculated by dividing the test session into 1 min bouts and averaging together all 2 min for each animal. […]

[3] = system: wild-type mice; assay: Contextual fear-conditioning test; format: in vivo; details: 0.0625 mg/kg, listed as CLZ
Description: as §1

[4] = system: C57BL/6J mice; assay: Barnes circular maze test; format: in vivo; details: 0.05 mg/kg
Description: (§2) The Barnes circular maze is a planar, round white PLEXIGLAS™ platform (92 cm diameter), 1 m above the floor, with 20 evenly spaced holes (7 cm diameter) located 5 cm from the perimeter. A black escape box (15×7×7 cm) was placed under one hole. Spatial cues with distinct patterns and shapes were placed on the wall of the testing room. A 500 lux light was turned on during the trial. An experimenter remained in the same place with minimal movement throughout the trials. The platform and the escape box were cleaned thoroughly with 70% ethanol and paper towels between each trial to remove olfactory cues. One day before the training trials began, test mice were habituated in the target box for 3 min. The training trials were repeated for 4 consecutive days, and 3 trials were performed each day with 20 min inter-trial intervals. At the beginning of each trial, a test mouse was placed in a cylindrical holding chamber (10 cm diameter) located in the center of the maze. After 10 s of holding time, the mouse was allowed to search for the target hole for 3 min. […] When the mouse entered the escape box, the light was turned off and the mouse remained undisturbed for 1 min. The movement of the mouse was recorded, and the number of errors made and the latency to find the target hole were measured during the training trials by video tracking software. On day 5, the probe trial was performed with each mouse. The escape box was removed, and the test mouse was allowed to find the target hole freely for 90 s. During the probe trial, total distance traveled and the latency to find the target hole were measured. % correct pokes and % time in the target area were also measured.
(§3) The number of errors made and the latency to find the target hole were measured during the 3 min-training trials by video tracking software.
(§4) During the 90 second-probe trial, the latency to find the target hole, % correct pokes, and % time in the target area were measured by the video-tracking software (EthoVision XT 8.5, Noldus Technology).

[5] = system: BTBR mice; assay: Barnes circular maze test; format: in vivo
Description: as §2, §3, §4

[6] = system: wild-type mice; assay: Three-chamber social preference test; format: in vivo; details: 0.0625 mg/kg, listed as CLZ
Method: The test was performed as described previously^34 with minor modifications. […] Each partition has a square opening (5×5 cm) in the bottom center. A cylindrical wire cage (10.5 cm diameter; GALAXY PENCIL CUP™ […] D[…]™) was used as an inanimate object or the cage housing a stranger mouse. A cylindrical bottle filled with water was placed on the top of the wire cup to prevent the test mouse from climbing to the top of the cup. The three-chamber unit and wire cups were cleaned with 70% ethanol and wiped with paper towels between each trail. […] The mouse was allowed to freely explore each chamber. […] The wire cage on the other side remained empty (E). […] Thus, the test mouse would now have the choice between a mouse that was already familiar (M1) and a new stranger mouse (M2). […] The movement of the mouse was recorded by a USB webcam (LIFECAM™ HD-6000, MICROSOFT™) and PC-based video capture software (WINAVI™ Video Capture, ZJ MEDIA DIGITAL TECHNOLOGY™). The recorded video file was further analyzed by off-line video tracking software (ETHOVISION™ XT 7.0).
Oral administration is specifically contemplated for the methods described herein, and is well known for both benzodiazepines and non-BDZ GABA-A enhancers as described herein.

SMILES | action at α2, α3 and α5 subtypes [1] | short-term (30 min) and long-term (24 h) fear-associated contextual memory [2] | fear-associated contextual memory [3] | learning performance and spatial memory [4] | spatial learning during training sessions (latency, errors) ([5]; 0.05 mg/kg) | spatial memory in probe trials ([5]; single low dose 30 min prior) | social interaction, 3-chamber social preference test [6]
Cn1ncnc1COc1nn2c(-c3cc(F)ccc3F)nnc2cc1C(C)(C)C [L-838,417] | partial agonist |  |  |  |  |  | 
O=C1CN=C(c2ccccc2Cl)c2cc([N+](=O)[O-])ccc2N1 [Clonazepam] |  | complete reversal; also recorded: complete rescue | unaffected; also recorded: no significant change | regardless of clonazepam treatment; also recorded: significantly worsened | significantly improved | increased | no effect; also recorded: absent; also recorded: not changed
